Reference: the supplement of paper PMC10307832

Columns and labels:
Assay in all cases: relative viability (nuclei count vs DMSO), 5 days (fraction); higher = more cells survive
LCLC-103H = system: LCLC-103H
In short: (§1)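 Values are medians from duplicate plates. Each reflects relative viability, defined as the nuclei count of treated wells over that of vehicle wells. Lung cancer cell lines in 1536-well plates were pin-tool dosed one day after seeding with one drug alone or with a fixed anchor-drug dose plus five library-drug doses (not always all listed) in √10 steps, then fixed, stained and imaged at 4× after 5 days.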

NCI-H441 = system: NCI-H441
In short: as §1

201T = system: 201T
In short: as §1

NCI-H596 = system: NCI-H596
In short: as §1

LOU-NH91 = system: LOU-NH91
In short: as §1

NCI-H2126 = system: NCI-H2126
In short: as §1

NCI-H2023 = system: NCI-H2023
In short: as §1

NCI-H522 = system: NCI-H522
In short: as §1

HCC-44 = system: HCC-44
In short: as §1

NCI-H2087 = system: NCI-H2087
In short: as §1

NCI-H2347 = system: NCI-H2347
In short: as §1

NCI-H1993 = conditions: first compound 0.04 µM
In short: as §1

## Clc1ccc(Nc2nnc(Cc3ccncc3)c3ccccc23)cc1 [Vatalanib] + Nc1nc2[nH]cc(CCc3ccc(C(=O)N[C@@H](CCC(=O)O)C(=O)O)cc3)c2c(=O)[nH]1 [Pemetrexed] (partner 0.2 µM)
LCLC-103H; first compound 0.04 µM
  relative viability: 0.343
LCLC-103H; first compound 0.1265 µM
  relative viability: 0.428
LCLC-103H; first compound 0.4 µM
  relative viability: 0.449
LCLC-103H; first compound 1.265 µM
  relative viability: 0.487
LCLC-103H; first compound 4 µM
  relative viability: 0.453
NCI-H441; first compound 0.04 µM
  relative viability: 0.249
NCI-H441; first compound 0.1265 µM
  relative viability: 0.215
NCI-H441; first compound 0.4 µM
  relative viability: 0.257
NCI-H441; first compound 1.265 µM
  relative viability: 0.265
NCI-H441; first compound 4 µM
  relative viability: 0.274
201T; first compound 0.04 µM
  relative viability: 0.305
201T; first compound 0.1265 µM
  relative viability: 0.335
201T; first compound 0.4 µM
  relative viability: 0.337
201T; first compound 1.265 µM
  relative viability: 0.359
201T; first compound 4 µM
  relative viability: 0.311
NCI-H596; first compound 0.04 µM
  relative viability: 0.482
NCI-H596; first compound 0.1265 µM
  relative viability: 0.488
NCI-H596; first compound 0.4 µM
  relative viability: 0.524
NCI-H596; first compound 1.265 µM
  relative viability: 0.514
NCI-H596; first compound 4 µM
  relative viability: 0.47
LOU-NH91; first compound 0.04 µM
  relative viability: 0.417
LOU-NH91; first compound 0.1265 µM
  relative viability: 0.378
LOU-NH91; first compound 0.4 µM
  relative viability: 0.373
LOU-NH91; first compound 1.265 µM
  relative viability: 0.366
LOU-NH91; first compound 4 µM
  relative viability: 0.361
NCI-H2126; first compound 0.04 µM
  relative viability: 0.68
NCI-H2126; first compound 0.1265 µM
  relative viability: 0.668
NCI-H2126; first compound 0.4 µM
  relative viability: 0.731
NCI-H2126; first compound 1.265 µM
  relative viability: 0.592
NCI-H2126; first compound 4 µM
  relative viability: 0.602
NCI-H2023; first compound 0.04 µM
  relative viability: 0.263
NCI-H2023; first compound 0.1265 µM
  relative viability: 0.21
NCI-H2023; first compound 0.4 µM
  relative viability: 0.215
NCI-H2023; first compound 1.265 µM
  relative viability: 0.242
NCI-H2023; first compound 4 µM
  relative viability: 0.202
NCI-H522; first compound 0.04 µM
  relative viability: 0.923
NCI-H522; first compound 0.1265 µM
  relative viability: 0.861
NCI-H522; first compound 0.4 µM
  relative viability: 1.24
NCI-H522; first compound 1.265 µM
  relative viability: 0.86
NCI-H522; first compound 4 µM
  relative viability: 0.945
HCC-44; first compound 0.04 µM
  relative viability: 0.593
HCC-44; first compound 0.1265 µM
  relative viability: 0.61
HCC-44; first compound 0.4 µM
  relative viability: 0.673
HCC-44; first compound 1.265 µM
  relative viability: 0.638
HCC-44; first compound 4 µM
  relative viability: 0.683
NCI-H2087; first compound 0.04 µM
  relative viability: 0.666
NCI-H2087; first compound 0.1265 µM
  relative viability: 0.659
NCI-H2087; first compound 0.4 µM
  relative viability: 0.685
NCI-H2087; first compound 1.265 µM
  relative viability: 0.64
NCI-H2087; first compound 4 µM
  relative viability: 0.682
NCI-H2347; first compound 0.04 µM
  relative viability: 0.444
NCI-H2347; first compound 0.1265 µM
  relative viability: 0.419
NCI-H2347; first compound 0.4 µM
  relative viability: 0.43
NCI-H2347; first compound 1.265 µM
  relative viability: 0.487
NCI-H2347; first compound 4 µM
  relative viability: 0.41
NCI-H1993
  relative viability: 0.581
